Results from patent US20170303543A1, “AGRICHEMICAL COMPOSITIONS AND METHODS OF MAKING AND USING SAME” (priority 2014, published 2017).

System: Xanthomonas alfalfae
Test: Alamar Blue assay for antimicrobial activity (FIG. 11)
Assay type: cell-based
Conditions: metallic zinc concentration as low as 50 PPM, components at relevant concentrations
From the text: FIG. 11A, FIG. 11B, FIG. 11C and FIG. 11D show a series of images illustrating Alamar Blue assay in accordance with the embodiments. […] It is to be understood that this disclosure is not limited to the foregoing particular embodiments described, as such may, of course, vary. It is also to be understood that the terminology used herein is for the purpose of describing particular embodiments only, and is not intended to be limiting, since the scope of the present disclosure will be limited only by the appended claims.

SMILES | antimicrobial effect against Xanthomonas alfalfae
NC(N)=O [urea] | did not elicit similar effect
OO [hydrogen peroxide] | did not elicit similar effect
[Zn+2] [divalent zinc ion] | did not elicit similar effect
